Data published in the supplement of paper PMC10627819.

What was measured:
S. aureus Newman [1] = experiment: Bliss interaction score (quartile over a dose matrix) (fitness difference); higher = more antagonism (negative = synergy)
Outline: (§1)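 Values were capped at 1 after dividing OD595 at stationary-phase entry by the plate's robust no-drug mean. This ratio is fitness, and single-drug fitness was inferred from the combination data. The Bliss score is observed minus product-expected fitness, given as quartiles over technical, biological and donor/recipient replicates.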

S. aureus DSM 20231 = experiment: as above
Outline: as §1

B. subtilis 168 [2] = experiment: as above
Outline: as §1

S. pneumoniae D39V [3] = experiment: as above
Outline: as §1

B. subtilis 168 [4] = experiment: fitness (endpoint OD595 vs no drug) (fraction); higher = more growth
Outline: (§2)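 Volumes were 30 µl per well, or 55 µl for S. pneumoniae, in 384-well plates inoculated at OD595 0.01. Media were TSB, LB Lennox or CY at 37 °C, and OD595 was read every 30 min for 14 h with first-reading background subtraction. Fitness is the ratio of optical density at stationary-phase entry to the robust mean of no-drug controls. That ratio is capped at 1.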

S. pneumoniae D39V [5] = experiment: as above
Outline: as §2

S. aureus Newman [6] = experiment: as above; details: main component drawn
Outline: as §2
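Throughout, for Bliss interaction score (quartile over a dose matrix): first quartile when negative (synergy) and third quartile when positive (antagonism).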

CNC(C)C1CCC(N)C(OC2C(N)CC(N)C(OC3OCC(C)(O)C(NC)C3O)C2O)O1 (stereo not given) [Gentamicin] + C[C@H]1COc2c(N3CCN(C)CC3)c(F)cc3c(=O)c(C(=O)O)cn1c23 [Levofloxacin]
main component drawn
Details | Bliss interaction score
B. subtilis 168 [2] | -0.0837
S. aureus DSM 20231 | 0.0527
S. aureus Newman [1] | 0.0894
S. pneumoniae D39V [3] | -0.123

fitness, B. subtilis 168 [4], one replicate, main component drawn
Details | first compound 0.0625 µg/mL | first compound 0.125 µg/mL | first compound 0.25 µg/mL
partner 0.001 µg/mL | 0.868 | 0.126 | 0.0524
partner 0.0078 µg/mL | 0.98 | 0.977 | 0.259

main component drawn
Details | fitness
B. subtilis 168 [4], first compound 0.0625 µg/mL, partner 0.002 µg/mL | 0.89
B. subtilis 168 [4], first compound 0.0625 µg/mL, partner 0.0039 µg/mL | 0.89
B. subtilis 168 [4], first compound 0.0625 µg/mL, partner 0.0312 µg/mL | 0.0381
B. subtilis 168 [4], first compound 0.0625 µg/mL, partner 0.0625 µg/mL | 0.0442
B. subtilis 168 [4], first compound 0.0625 µg/mL, partner 0.125 µg/mL | 0.0374
B. subtilis 168 [4], first compound 0.125 µg/mL, partner 0.0312 µg/mL | 0.0387
B. subtilis 168 [4], first compound 0.125 µg/mL, partner 0.0625 µg/mL | 0.046
B. subtilis 168 [4], first compound 0.125 µg/mL, partner 0.125 µg/mL | 0.0388
B. subtilis 168 [4], first compound 0.25 µg/mL, partner 0.002 µg/mL | 0.206
B. subtilis 168 [4], first compound 0.25 µg/mL, partner 0.0039 µg/mL | 0.163
B. subtilis 168 [4], first compound 0.25 µg/mL, partner 0.0312 µg/mL | 0.0407
B. subtilis 168 [4], first compound 0.25 µg/mL, partner 0.0625 µg/mL | 0.0447
B. subtilis 168 [4], first compound 0.25 µg/mL, partner 0.125 µg/mL | 0.0485
S. pneumoniae D39V [5], first compound 2 µg/mL, partner 0.1725 µg/mL | 0.98
S. pneumoniae D39V [5], first compound 2 µg/mL, partner 0.2 µg/mL | 0.901
S. pneumoniae D39V [5], first compound 2 µg/mL, partner 0.345 µg/mL | 0.914
S. pneumoniae D39V [5], first compound 2 µg/mL, partner 0.4 µg/mL | 0.75
S. pneumoniae D39V [5], first compound 2 µg/mL, partner 0.69 µg/mL | 0.636
S. pneumoniae D39V [5], first compound 2 µg/mL, partner 0.8 µg/mL | 0.213
S. pneumoniae D39V [5], first compound 4 µg/mL, partner 0.1725 µg/mL | 0.972
S. pneumoniae D39V [5], first compound 4 µg/mL, partner 0.2 µg/mL | 0.874
S. pneumoniae D39V [5], first compound 4 µg/mL, partner 0.345 µg/mL | 0.902
S. pneumoniae D39V [5], first compound 4 µg/mL, partner 0.4 µg/mL | 0.723
S. pneumoniae D39V [5], first compound 4 µg/mL, partner 0.69 µg/mL | 0.625
S. pneumoniae D39V [5], first compound 4 µg/mL, partner 0.8 µg/mL | 0.21
S. pneumoniae D39V [5], first compound 8 µg/mL, partner 0.1725 µg/mL | 0.98
S. pneumoniae D39V [5], first compound 8 µg/mL, partner 0.2 µg/mL | 0.865
S. pneumoniae D39V [5], first compound 8 µg/mL, partner 0.345 µg/mL | 0.912
S. pneumoniae D39V [5], first compound 8 µg/mL, partner 0.4 µg/mL | 0.671
S. pneumoniae D39V [5], first compound 8 µg/mL, partner 0.69 µg/mL | 0.438
S. pneumoniae D39V [5], first compound 8 µg/mL, partner 0.8 µg/mL | 0.179

CC1=C(C(=O)O)N2C(=O)[C@@H](NC(=O)[C@H](N)c3ccccc3)[C@H]2SC1 [Cephalexin] + CC(=O)NC[C@H]1CN(c2ccc(N3CCOCC3)c(F)c2)C(=O)O1 [Linezolid]
Details | Bliss interaction score
B. subtilis 168 [2] | 0.0768
S. aureus DSM 20231 | 0.0858
S. aureus Newman [1] | 0.106
S. pneumoniae D39V [3] | -0.075

fitness
Details | first compound 0.125 µg/mL | first compound 0.25 µg/mL | first compound 0.5 µg/mL | first compound 1 µg/mL | first compound 2 µg/mL | first compound 4 µg/mL
B. subtilis 168 [4], partner 0.125 µg/mL | 0.569 | 0.582 | 0.601 | – | – | –
B. subtilis 168 [4], partner 0.25 µg/mL | 0.121 | 0.119 | 0.117 | – | – | –
B. subtilis 168 [4], partner 0.5 µg/mL | 0.0468 | 0.0463 | 0.0421 | – | – | –
S. pneumoniae D39V [5], partner 0.105 µg/mL | – | – | – | 0.606 | 0.0569 | 0.0509
S. pneumoniae D39V [5], partner 0.21 µg/mL | – | – | – | 0.475 | 0.0291 | 0
S. pneumoniae D39V [5], partner 0.42 µg/mL | – | – | – | 0.332 | 0.0014 | 0.0511

fitness, one replicate
Details | first compound 0.125 µg/mL | first compound 0.25 µg/mL | first compound 0.5 µg/mL | first compound 1 µg/mL
B. subtilis 168 [4], partner 0.0625 µg/mL | – | 0.901 | 0.932 | 0.877
B. subtilis 168 [4], partner 0.125 µg/mL | – | – | – | 0.66
B. subtilis 168 [4], partner 0.25 µg/mL | – | – | – | 0.0828
S. pneumoniae D39V [5], partner 0.2 µg/mL | 0.778 | 0.84 | 0.829 | –
S. pneumoniae D39V [5], partner 0.4 µg/mL | 0.667 | 0.707 | 0.726 | –
S. pneumoniae D39V [5], partner 0.8 µg/mL | 0.222 | 0.36 | 0.375 | –

CNC(C)C1CCC(N)C(OC2C(N)CC(N)C(OC3OCC(C)(O)C(NC)C3O)C2O)O1 (stereo not given) [Gentamicin] + CCCCCCCCCC(=O)N[C@@H]1[C@H]([C@@H]([C@H](O[C@H]1OC2=C3C=C4C=C2OC5=C(C=C(C=C5)[C@H]([C@H]6C(=O)N[C@@H](C7=C(C(=CC(=C7)O)OC8[C@H]([C@H]([C@@H]([C@H](O8)CO)O)O)O)C9=C(C=CC(=C9)[C@H](C(=O)N6)NC(=O)[C@@H]4NC(=O)[C@@H]1C2=CC(=CC(=C2)OC2=C(C=CC(=C2)[C@H](C(=O)N[C@H](CC2=CC(=C(O3)C=C2)Cl)C(=O)N1)N)O)O)O)C(=O)O)O[C@H]1[C@@H]([C@H]([C@@H]([C@H](O1)CO)O)O)NC(=O)C)Cl)CO)O)O [Teicoplanin]
main component drawn
Details | Bliss interaction score
B. subtilis 168 [2] | -0.13
S. aureus DSM 20231 | -0.0694
S. aureus Newman [1] | -0.0337
S. pneumoniae D39V [3] | 0.0694

fitness, S. aureus Newman [6], one replicate
Details | first compound 0.375 µg/mL | first compound 0.75 µg/mL | first compound 1 µg/mL | first compound 1.5 µg/mL | first compound 2 µg/mL | first compound 4 µg/mL
partner 0.1562 µg/mL | ≥ 1 | ≥ 1 | – | ≥ 1 | – | –
partner 0.3125 µg/mL | ≥ 1 | ≥ 1 | – | ≥ 1 | – | –
partner 0.62 µg/mL | – | – | 0.748 | – | 0.37 | 0.0704
partner 0.625 µg/mL | 0.861 | 0.851 | – | 0.875 | – | –
partner 1.24 µg/mL | – | – | 0.616 | – | 0.0206 | 0.0307
partner 2.48 µg/mL | – | – | 0.0707 | – | 0.0793 | 0.0765

fitness, S. aureus Newman [6]
Details | first compound 0.5 µg/mL | first compound 1 µg/mL | first compound 2 µg/mL
partner 0.1562 µg/mL | ≥ 1 | ≥ 1 | ≥ 1
partner 0.3125 µg/mL | ≥ 1 | ≥ 1 | ≥ 1
partner 0.625 µg/mL | ≥ 1 | ≥ 1 | ≥ 1

CNC(C)C1CCC(N)C(OC2C(N)CC(N)C(OC3OCC(C)(O)C(NC)C3O)C2O)O1 (stereo not given) [Gentamicin] + CN(C)C(=O)C(CCN1CCC(O)(c2ccc(Cl)cc2)CC1)(c1ccccc1)c1ccccc1 [Loperamide]
main component drawn
Details | Bliss interaction score
B. subtilis 168 [2] | -0.159
S. aureus DSM 20231 | 0.0997
S. aureus Newman [1] | 0.0802
S. pneumoniae D39V [3] | 0.0792

main component drawn
Details | fitness
B. subtilis 168 [4], first compound 0.0625 µg/mL, partner 100 µg/mL | 0.0528
B. subtilis 168 [4], first compound 0.125 µg/mL, partner 25 µg/mL | 0.0373
B. subtilis 168 [4], first compound 0.125 µg/mL, partner 50 µg/mL | 0.0589
B. subtilis 168 [4], first compound 0.125 µg/mL, partner 100 µg/mL | 0.0432
B. subtilis 168 [4], first compound 0.25 µg/mL, partner 25 µg/mL | 0.0438
B. subtilis 168 [4], first compound 0.25 µg/mL, partner 50 µg/mL | 0.0483
B. subtilis 168 [4], first compound 0.25 µg/mL, partner 100 µg/mL | 0.0409
S. pneumoniae D39V [5], first compound 2 µg/mL, partner 17.14 µg/mL | 0.968
S. pneumoniae D39V [5], first compound 2 µg/mL, partner 20 µg/mL | ≥ 1
S. pneumoniae D39V [5], first compound 2 µg/mL, partner 34.28 µg/mL | 0.967
S. pneumoniae D39V [5], first compound 2 µg/mL, partner 40 µg/mL | 0.994
S. pneumoniae D39V [5], first compound 2 µg/mL, partner 80 µg/mL | 0.193
S. pneumoniae D39V [5], first compound 4 µg/mL, partner 17.14 µg/mL | ≥ 1
S. pneumoniae D39V [5], first compound 4 µg/mL, partner 20 µg/mL | ≥ 1
S. pneumoniae D39V [5], first compound 4 µg/mL, partner 34.28 µg/mL | 0.98
S. pneumoniae D39V [5], first compound 4 µg/mL, partner 40 µg/mL | ≥ 1
S. pneumoniae D39V [5], first compound 8 µg/mL, partner 17.14 µg/mL | 0.984
S. pneumoniae D39V [5], first compound 8 µg/mL, partner 20 µg/mL | ≥ 1
S. pneumoniae D39V [5], first compound 8 µg/mL, partner 34.28 µg/mL | 0.916
S. pneumoniae D39V [5], first compound 8 µg/mL, partner 40 µg/mL | ≥ 1

S. pneumoniae D39V [5], partner 68.57 µg/mL, one replicate, main component drawn
Details | fitness
first compound 2 µg/mL | ≥ 1
first compound 4 µg/mL | 0.924
first compound 8 µg/mL | 0.937
